We go through four compounds from patent US20100215620A1, “THE CO-CULTURE METHOD OF SPHINGOMONAS SP. BACTERIAL STRAIN AND ASPERGILLUS SP. FUNGUS STRAIN, NEW ANTI-CANCER AND ANTIBIOTIC GLIONITRINS DERIVED FROM THIS CO-CULTURE METHOD, AND PHARMACEUTICAL COMPOSITION CONTAINING GLIONITRINS OR PHARMACEUTICALLY ACCEPTABLE SALT THEREOF AS AN ACTIVE INGREDIENT” (KOREA INSTITUTE OF SCIENCE AND TECHNOLOGY, priority 2007, published 2010).

Data set [1] concerns Aspergillus fumigatus HIC 6094. Nature of the data set: Antifungal MIC, Sabouraud glucose liquid medium. Type of data set: cell-based. The source says:
(§1) The present inventors also evaluated antifungal activity of glionitrins A and B against those strains distributed from American Type Culture Collection (ATCC, Manassas, Va., USA) such as Aspergillus fumigatus HIC 6094 and Trichophyton rubrum IFO 9185. […] To determine MIC of glionitrin for those two fungus strains, spores of the fungus strains were suspended in sterilized distilled water at the density of 10^5 spores/mL and the density was adjusted by using Sabouraud glucose liquid medium (Difco) to 10^3 cells/mL. Then, the cells were distributed in a 96-well plate at the density of 10^2 cells/100 μl/well, to which glionitrin was added at different concentrations, followed by culture at 28° C. for […]. The concentration of glionitrin at which no fungi growth was confirmed was determined as MIC.

Data set [2] concerns Trichophyton rubrum IFO 9185. The data set can be described thus: Antifungal MIC, Sabouraud glucose liquid medium. Type of data set: cell-based.
Excerpt: as §1

Data set [3] has as its system Micrococus leuteus IFC 12708[G(+)]. The data set can be described thus: Antibacterial MIC, broth dilution, OD600. Type of data set: cell-based, Micrococcus leuteus. Particulars: Micrococcus. The method, then: (§2) The present inventors also investigated antibacterial effect of glionitrin A and glionitrin B using Micrococcus leuteus IFC 12708, Bacillus subtilis ATCC 6633, Proteus vulgaris ATCC 3851, Salmonella typhimurium ATCC 1 4028 and 3 MRSA strains, Staphylococcus aureus ATCC 43300, S. aureus ATCC 700787 and S. aureus ATCC 700788 distributed from American Type Culture Collection (ATCC, Manassas, Va., USA). […] Then, the medium was eliminated and 100 μl of medium containing 10^5 cfu/mL of each strain was loaded in each well of a 96-well plate. Glionitrin diluted at different concentrations was added thereto, followed by culture at 37° C. for 24 hours. 24 hours later, OD600 was measured.

For data set [4], the system named is S. aureus ATCC 700787(MRSA). The data set can be described thus: Antibacterial MIC, broth dilution, OD600. As to conditions: Staphylococcus aureus, 24 h. Type of data set: cell-based. How it is done:
as §2

Data set [5] concerns Staphylococcu aureus ATCC 4330(MRSA). The data set can be described thus: Antibacterial MIC, broth dilution, OD600. As to conditions: Staphylococcus aureus, 24 h. In kind it is cell-based. The method, then: as §2
In data set [6] the test system is S. aureus ATCC 700788(MRSA). The data set can be described thus: Antibacterial MIC, broth dilution, OD600. In kind it is cell-based. Particulars: Staphylococcus aureus. How it is done: as §2
The subject of data set [7] is Bacillus subtilis ATCC 6633 [G(+)]. Nature of the data set: Antibacterial MIC, broth dilution, OD600. Type of data set: cell-based. The method, then: as §2
Data set [8] relates to Salmonella typhimurium ATCC 14028[G(−)]. The data set can be described thus: Antibacterial MIC, broth dilution, OD600. Type of data set: cell-based. As to conditions: Salmonella enterica. The method, then:
as §2

For data set [9], the system named is Proteus vulgaris ATCC 3851[G(−)]. Nature of the data set: Antibacterial MIC, broth dilution, OD600. In kind it is cell-based. How it is done:
as §2

The subject of another data set is 4 non-resistant strains. Nature of the data set: Antibacterial MIC. Type of data set: cell-based. How it is done: as §2
The test system of a further data set is 3 MRSA strains. Nature of the data set: Antibacterial MIC. In kind it is cell-based, Staphylococcus aureus. Particulars: against 3 MRSA strains. The method, then:
as §2

The subject of another data set is MCF-7. Nature of the data set: In vitro MTT cytotoxicity assay. Type of data set: cell-based. Particulars: Homo sapiens, MCF7.
In data set [10] the test system is DU-145 (prostatic cancer, HTB-81). Nature of the data set: In vitro MTT cytotoxicity assay. Type of data set: cell-based. As to conditions: Homo sapiens, DU-145, 24 h. The method, then:
(§3) The present inventors investigated cytotoxic effect of glionitrin on cancer cells with in vitro MTT (3-[4,5-dimethylthiazol-2-yl]-2,5-diphenyltrazdium bromide) assay to quantify live cancer cells. Cancer cell cytotoxicity of glionitrin was evaluated using AGS (stomach cancer, ATCC CRL-1739™), HepG2 (liver cancer, HB-8065™), HCT116 (colon cancer, CCL-247™), A549 (lung cancer, CCL-185™) and DU145 (prostatic cancer, HTB-81™) distributed from American Type Culture Collection (ATCC, Manassas, Va., USA). Stomach cancer (AGS), liver cancer (HepG2), colon cancer (HCT-116), lung cancer (A549) or prostatic cancer (DU-145) cells were distributed in a 96-well plate at the density of 1×10^4 cells/100 μl/well, followed by culture in a 37° C., CO2 incubator for 24 hours. Then, the medium was replaced with a fresh one containing glionitrin, followed by culture at 37° C. 24 hours later, MTT solution was added thereto by 10 μl/well, followed by further culture for 1 hour at 37° C. One hour later, formazane generated by reductase in live cells was quantified by measuring OD450.

For data set [11], the system named is HepG2 (liver cancer, HB-8065). The data set can be described thus: In vitro MTT cytotoxicity assay. Type of data set: cell-based. As to conditions: Homo sapiens, HepG2, 24 h. How it is done: as §3
The test system of data set [12] is AGS (stomach cancer, ATCC CRL-1739). Nature of the data set: In vitro MTT cytotoxicity assay. In kind it is cell-based. As to conditions: 24 h. The method, then:
as §3

For data set [13], the system named is A549 (lung cancer, CCL-185). Nature of the data set: In vitro MTT cytotoxicity assay. In kind it is cell-based. Particulars: Homo sapiens, A549, 24 h. The method, then:
as §3

In data set [14] the test system is HCT-116 (colon cancer, CCL-247). Nature of the data set: In vitro MTT cytotoxicity assay. As to conditions: Homo sapiens, HCT-116, 24 h. In kind it is cell-based. How it is done: as §3
A short description of data set [15]: Stability of glionitrin A in solution at room temperature. In kind it is physicochemical. Particulars: water, acetonitrile aqueous solution, methanol aqueous solution or DMSO. The text has this: The chemical structures of the separated compounds were identified by using MS and nuclear spectrometer. As a result, it was confirmed that glionitrin A was amorphous light yellow powder represented by the molecular formula of C13H11N3O5S2 which had the molecular weight of 353, and glionitrin B was colorless mucous semi-solid material represented by the molecular formula of C15H17N3O5S2 which had the molecular weight of 383.
The present inventors performed instrumental analysis with glionitrins to determine the chemical formulas of glionitrin A and glionitrin B. The separated glionitrin A was left in water or DMAO at room temperature. […] Glionitrin A was measured in chloroform-d solvent and glionitrin B was measured in methanol-d4 solvent.

Data set [16] has as its system Aspergillus fumigatus HIC 6094 and Trichophyton rubrum IFO 9185. Nature of the data set: Antifungal MIC. In kind it is cell-based.
Excerpt: as §1

The next data set relates to 7 bacterial strains. Nature of the data set: Antibacterial activity, text summary for the 7 bacterial strains. As to conditions: every experimental group (7 bacterial strains). In kind it is cell-based. How it is done:
as §2

The mark [17] stands for this setting: Micrococus leuteus IFC 12708, 37° C., 24 hours, read-out: MIC.
The mark [18] stands for this setting: ATCC6633, Bacillus subtilis ATCC 6633, 37° C., 24 hours, read-out: MIC.
The mark [19] stands for this setting: Salmonella typhimurium ATCC 14028, 37° C., 24 hours, read-out: MIC.
Where [20] appears, read: ATCC3851, Proteus vulgaris ATCC 3851, 37° C., 24 hours, read-out: MIC.

In brackets after ≈: the same amount, converted by molar mass. Like-named read-outs stand apart in the source and are kept apart here. Where only a bound is given, the exact number is not on record here.

Take `C[C@@H]1[C@H](O)[C@@H](C)/C=C/C=C/C=C/C=C/C=C/C=C/C=C/[C@H](O[C@@H]2O[C@H](C)[C@@H](O)[C@H](N)[C@@H]2O)C[C@@H]2O[C@](O)(C[C@@H](O)C[C@@H](O)[C@H](O)CC[C@@H](O)C[C@@H](O)CC(=O)O[C@H]1C)C[C@H](O)[C@H]2C(=O)O` [amphotericin B, reference compound]: the MIC in data set [1] (Aspergillus fumigatus HIC 6094, 28° C.) came out at 1.56 µg/mL (≈ 1.69 µM); in [2] (Trichophyton rubrum IFO 9185, 28° C.), 1.56 µg/mL (≈ 1.69 µM).
Take `CC1(C)S[C@@H]2[C@H](NC(=O)[C@H](N)c3ccccc3)C(=O)N2[C@H]1C(=O)O` [ampicillin, reference compound]: the MIC was 0.78 µg/mL (≈ 2.23 µM) in data set [3] (setting [17]); 12.5 µg/mL (≈ 35.8 µM) in [4]; 12.5 µg/mL (≈ 35.8 µM) in [5]; 25 µg/mL (≈ 71.5 µM) in data set [6] (S. aureus ATCC 700788 (MRSA), 37° C., 24 hours, read-out: MIC); 3.13 µg/mL (≈ 8.96 µM) in [7] (setting [18]); 12.5 µg/mL (≈ 35.8 µM) in data set [8] (setting [19]). Also, the MIC in [9] (setting [20]) turned out to be 1.56 µg/mL (≈ 4.46 µM).
Turning to `CN1C(=O)C23Cc4ccc([N+](=O)[O-])cc4N2C(=O)C1(CO)SS3` (stereo not shown) [glionitrin A], the MIC was 0.78 to 3.13 µg/mL (≈ 2.21 to 8.86 µM) with 4 non-resistant strains; 0.78 µg/mL (≈ 2.21 µM) in data set [3] (24 h); 0.78 µg/mL (≈ 2.21 µM) against 3 MRSA strains (Staphylococcus aureus); 0.78 µg/mL (≈ 2.21 µM) in data set [4]; 0.78 µg/mL (≈ 2.21 µM) in data set [5]; 0.78 µg/mL (≈ 2.21 µM) in data set [6] (24 h). In addition, the MIC was found to be 6.25 µg/mL (≈ 17.7 µM) in data set [7] (Bacillus subtilis, ATCC6633, 24 h); 3.13 µg/mL (≈ 8.86 µM) in [8] (24 h); 3.13 µg/mL (≈ 8.86 µM) in [9] (Proteus vulgaris, ATCC3851, 24 h); 12.5 µg/mL (≈ 35.4 µM) in [1] (Aspergillus fumigatus, HIC6094); 12.5 µg/mL (≈ 35.4 µM) in data set [2] (Trichophyton rubrum, IFO9185); 12.5 µg/mL (≈ 35.4 µM) in data set [16] (read-out: MIC (antifungal activity)). Also, in the data set with 3 MRSA strains (versus positive control ampicillin), the “antibacterial activity relative to ampicillin” value was 15 times. Moreover, the IC50 is greater than 2000 nM in the data set with MCF-7; 240 ± 20 nM in data set [10]; 2280 ± 300 nM in [11]; 450 ± 110 nM in data set [12]; 550 ± 70 nM in data set [13]; 820 ± 110 nM in data set [14]. The stability in solution result in data set [15] was “trisulfide (glionitrin C) and tetrasulfide (glionitrin D) were generated”.
On to `CSC1(CO)C(=O)N2c3cc([N+](=O)[O-])ccc3CC2(SC)C(=O)N1C` (stereo not shown) [glionitrin B], for which the MIC is greater than 100 µg/mL in data set [3] (setting [17]); greater than 50 µg/mL in data set [4]; greater than 50 µg/mL in data set [5]; greater than 50 µg/mL in data set [6] (24 h); greater than 100 µg/mL in data set [7] (setting [18]); greater than 50 µg/mL in [8] (setting [19]). The MIC in data set [9] (setting [20]) was greater than 50 µg/mL; in [1] (HIC6094, Aspergillus fumigatus HIC 6094, 28° C., read-out: MIC) it was greater than 50 µg/mL; in data set [2] (IFO9185, Trichophyton rubrum IFO 9185, 28° C., read-out: MIC) it was greater than 50 µg/mL. In addition, the IC50 is greater than 2000 nM in the data set with MCF-7 (MCF-7, MTT, read-out: IC50); 2290 ± 140 nM in data set [10] (MTT, read-out: IC50); greater than 2000 nM in data set [11] (MTT, read-out: IC50); 1250 ± 200 nM in data set [12] (AGS, MTT, read-out: IC50); 2250 ± 250 nM in data set [13] (MTT, read-out: IC50); 3280 ± 550 nM in data set [14] (MTT, read-out: IC50). In addition, the antibacterial activity entry in the data set on 7 bacterial strains was “no antibacterial activity at all”. The antifungal activity result in data set [16] (Aspergillus fumigatus HIC 6094 and Trichophyton rubrum IFO 9185) was “did not show antifungal activity”.
